Assay results from US5912258A, “Thiadiazoleamide derivative and anti-ulcer drug” (Shiseido Co., Ltd., priority 1998, dated 1999).

Tested on: gastric corpus mucosa cells
Assay: MTT: Cell Damaging and Protecting Effect Test
Format: cell-based, male Japanese White rabbit
Conditions: rabbit gastric mucosa cells, 10^-4 M, 4 hours; smaller value is better; 100 µM
Text: MTT: Cell Damaging and Protecting Effect Test
It is confirmed that there is no toxicity in cell level. Those having toxicity in cell level are inappropriate as an anti-ulcer drug.
A male Japanese White rabbit (2.5 to 3 kg) was anesthetized to death by Nembutal™ and, immediately thereafter, its stomach was removed. The greater curvature of the stomach was incised so as to remove the stomach contents therefrom. After the mucosal surface was washed with HBSS (Hank's Balanced Salt Solution), the stomach in ice-cooled HBSS was transferred to a laboratory. Then, after the pyloric antrum was removed, the gastric corpus mucosa was separated by a spatula and then minced into 2 to 3 mm pieces in BME (Basal Medium Eagle). Thereafter, these pieces were shaken at 120 to 130 cycles/minute for 15 minutes at 37° C. in BME 60 ml containing 280 U/ml of dispase and 30 to 50 U/mil of collagenase. Here, the concentration of collagenase was appropriately changed for each lot in view of the state of cells. The pieces were washed twice with EBSS (Earle's Balanced Salt Solution) containing 1 mM of EDTA and then shaken in MEM (Minimum Essential Medium) containing 1 mM of EDTA at 37° C. for 5 minutes. Subsequently, they were shaken in the dispase and collagenase having the same concentrations as those mentioned above for 15 minutes so as to remove the supernatant and then further shaken at 37° C. for 50 to 60 minutes at 120 to 130 cycles/minute. Then, after being washed twice with HBSS, Ham F12 containing 2% of Ultrocer G™ was used to attain the concentration of 1×10^6 cells/ml. Thus formed suspension was dispensed in each well of a 96-well plate by 200 μl. The plate was incubated in the atmosphere composed of 5% CO2 and 95% air at 37° C. for three days so as to attain a confluent state and then subjected to MTT assay.
The sample compound was dissolved in DMSO so as to attain a concentration of 10^-2 M and then diluted with HBSS containing 2% of Ultrocer G™ so as to attain a final concentration of 10^-4 M. To each group, which 8 wells were used for, 10 μl of MTT reagent was added immediately after 100 μl of the medium in each well was exchanged for same volume of the resulting solution of the sample compound. After being incubated in an atmosphere composed of 5% CO2 and 95% air at 37° C. for 4 hours, thus formed solution was centrifuged and then its supernatant was discarded. Subsequently, 100 μl of 100% ethanol was added to the residue so as to dissolve MTT formazan. Then, the absorbance (OD: 570 to 630) was measured by a microplate reader. This method utilizes a phenomenon in which MTT is changed to MTT formazan only by mitochondria of living cells so as to change color.
The cell damaging or cell protecting effect of the sample compound at the final concentration of 10^-4 M was expressed as cell damaging rate (%) as follows:
cell damaging rate (%)={1-(absorbance in sample group/absorbance in control group)}×100
Accordingly, the smaller value is better in the cell damaging rate.

For CC(C)c1ccc(C(=O)Nc2nnc(SCCN(C(C)C)C(C)C)s2)cc1 [Example 2, 2-(4-isopropylbenzoyl)amino-5-diisopropylaminoethylthio-1,3,4-thiadiazole], which “MTT: cell damaging rate” value is on record?
Its value is -77%.
